Measured values from the OligoGym collection.
Oligonucleotides are written 5' to 3', each unit as a sugar letter and its base; * is a phosphorothioate linkage, no mark a phosphodiester; rarer units and linkages stand in square brackets, end groups in braces. Plain capitals give the bases only. d = 2'-deoxy (DNA); r = 2'-OH (RNA)

Target: UBE2L3
Experiment: reporter assay of Huesken 2005
Conditions: siRNA
Further: test concentration or dose not given here.

First: sense rCrCrArArArArCrCrGrArCrCrArArGrUrArArUdTdT / antisense rArUrUrArCrUrUrGrGrUrCrGrGrUrUrUrUrGrGdTdT
Second: sense rCrCrArArArCrArUrCrGrArCrGrArArArArGrGdTdT / antisense rCrCrUrUrUrUrCrGrUrCrGrArUrGrUrUrUrGrGdGdT
The normalised inhibition (eCFP-eYFP dual reporter) of the first is higher: 84.6% for the first, 59.4% for the second.

First: sense rCrCrArArGrUrArArUrCrCrArGrUrCrCrCrUrCdTdT / antisense rGrArGrGrGrArCrUrGrGrArUrUrArCrUrUrGrGdTdC
Second: sense rCrCrArGrUrArArUrUrArGrUrGrCrCrGrArArAdTdT / antisense rUrUrUrCrGrGrCrArCrUrArArUrUrArCrUrGrGdCdA
The normalised inhibition (eCFP-eYFP dual reporter) of the first is lower: 61.4% for the first, 82.8% for the second.

Going from “sense rCrCrCrGrCrUrUrCrGrGrGrCrUrGrArCrCrUrAdTdT / antisense rUrArGrGrUrCrArGrCrCrCrGrArArGrCrGrGrGdTdG” to “sense rCrCrGrArArGrArUrCrArCrArUrUrUrArArArAdTdT / antisense rUrUrUrUrArArArUrGrUrGrArUrCrUrUrCrGrGdTdG”, the normalised inhibition (eCFP-eYFP dual reporter) rises from 62.3% to 83.4%.

Going from “sense rCrCrGrUrArArCrArUrCrCrArGrGrUrUrGrArUdTdT / antisense rArUrCrArArCrCrUrGrGrArUrGrUrUrArCrGrGdAdA” to “sense rCrCrUrArGrCrUrGrArArGrArArUrArCrUrCrUdTdT / antisense rArGrArGrUrArUrUrCrUrUrCrArGrCrUrArGrGdTdC”, the normalised inhibition (eCFP-eYFP dual reporter) rises from 61.4% to 63.9%.

Going from “sense rCrCrUrCrCrArUrArUrGrArUrArArGrGrGrArGdTdT / antisense rCrUrCrCrCrUrUrArUrCrArUrArUrGrGrArGrGdGdT” to “sense rCrGrGrGrCrUrGrArCrCrUrArGrCrUrGrArArGdTdT / antisense rCrUrUrCrArGrCrUrArGrGrUrCrArGrCrCrCrGdAdA”, the normalised inhibition (eCFP-eYFP dual reporter) falls from 81.2% to 61.3%.

First: sense rCrUrCrArUrArGrCrArCrUrGrGrUrGrArArUrGdTdT / antisense rCrArUrUrCrArCrCrArGrUrGrCrUrArUrGrArGdGdG
Second: sense rCrUrGrArGrCrArCrCrCrGrCrUrUrCrGrGrGrCdTdT / antisense rGrCrCrCrGrArArGrCrGrGrGrUrGrCrUrCrArGdGdC
The normalised inhibition (eCFP-eYFP dual reporter) of the first is higher: 77.1% for the first, 51.7% for the second.

Compared with “sense rCrUrGrUrCrUrGrCrCrArGrUrArArUrUrArGrUdTdT / antisense rArCrUrArArUrUrArCrUrGrGrCrArGrArCrArGdAdC”, “sense rGrArCrCrUrArGrCrUrGrArArGrArArUrArCrUdTdT / antisense rArGrUrArUrUrCrUrUrCrArGrCrUrArGrGrUrCdAdG” is higher in normalised inhibition (eCFP-eYFP dual reporter): 52.5% for the first, 102% for the second.

First: sense rGrCrArGrGrUrCrUrGrUrCrUrGrCrCrArGrUrAdTdT / antisense rUrArCrUrGrGrCrArGrArCrArGrArCrCrUrGrCdCdC
Second: sense rGrCrUrArArUrUrUrArUrUrGrArCrUrUrGrGrCdTdT / antisense rGrCrCrArArGrUrCrArArUrArArArUrUrArGrCdTdT
The normalised inhibition (eCFP-eYFP dual reporter) of the first is higher: 52.7% for the first, 46.2% for the second.

Going from “sense rGrCrUrGrArCrCrUrArGrCrUrGrArArGrArArUdTdT / antisense rArUrUrCrUrUrCrArGrCrUrArGrGrUrCrArGrCdCdC” to “sense rGrGrArArGrCrCrArGrCrArArCrCrArArArArCdTdT / antisense rGrUrUrUrUrGrGrUrUrGrCrUrGrGrCrUrUrCrCdAdG”, the normalised inhibition (eCFP-eYFP dual reporter) rises from 70.1% to 73%.

Going from “sense rGrGrCrArArGrGrGrCrUrUrArUrUrGrUrUrCrCdTdT / antisense rGrGrArArCrArArUrArArGrCrCrCrUrUrGrCrCdAdA” to “sense rGrGrUrCrUrGrUrCrUrGrCrCrArGrUrArArUrUdTdT / antisense rArArUrUrArCrUrGrGrCrArGrArCrArGrArCrCdTdG”, the normalised inhibition (eCFP-eYFP dual reporter) falls from 79.4% to 74.3%.

First: sense rGrUrCrUrGrUrCrUrGrCrCrArGrUrArArUrUrAdTdT / antisense rUrArArUrUrArCrUrGrGrCrArGrArCrArGrArCdCdT
Second: sense rUrArCrCrCrArUrUrCrArArArCrCrArCrCrGrAdTdT / antisense rUrCrGrGrUrGrGrUrUrUrGrArArUrGrGrGrUrAdCdT
The normalised inhibition (eCFP-eYFP dual reporter) of the first is higher: 91% for the first, 71.8% for the second.

First: sense rUrArUrCrArCrCrCrArArArCrArUrCrGrArCrGdTdT / antisense rCrGrUrCrGrArUrGrUrUrUrGrGrGrUrGrArUrAdGdA
Second: sense rUrArUrUrGrArCrUrUrGrGrCrArArGrGrGrCrUdTdT / antisense rArGrCrCrCrUrUrGrCrCrArArGrUrCrArArUrAdAdA
The normalised inhibition (eCFP-eYFP dual reporter) of the first is lower: 57% for the first, 75.3% for the second.

Compared with “sense rUrCrArUrArGrCrArCrUrGrGrUrGrArArUrGrAdTdT / antisense rUrCrArUrUrCrArCrCrArGrUrGrCrUrArUrGrAdGdG”, “sense rUrCrCrArGrGrUrUrGrArUrGrArArGrCrUrArAdTdT / antisense rUrUrArGrCrUrUrCrArUrCrArArCrCrUrGrGrAdTdG” is higher in normalised inhibition (eCFP-eYFP dual reporter): 77.5% for the first, 112% for the second.

First: sense rUrCrCrUrGrArCrArArCrCrCrUrCrCrArUrArUdTdT / antisense rArUrArUrGrGrArGrGrGrUrUrGrUrCrArGrGrAdAdC
Second: sense rUrGrArUrArArGrGrGrArGrCrCrUrUrCrArGrAdTdT / antisense rUrCrUrGrArArGrGrCrUrCrCrCrUrUrArUrCrAdTdA
The normalised inhibition (eCFP-eYFP dual reporter) of the first is lower: 69.7% for the first, 110% for the second.

Compared with “sense rUrGrUrCrUrGrCrCrArGrUrArArUrUrArGrUrGdTdT / antisense rCrArCrUrArArUrUrArCrUrGrGrCrArGrArCrAdGdA”, “sense rUrUrCrArArArCrCrArCrCrGrArArGrArUrCrAdTdT / antisense rUrGrArUrCrUrUrCrGrGrUrGrGrUrUrUrGrArAdTdG” is higher in normalised inhibition (eCFP-eYFP dual reporter): 51.7% for the first, 65.9% for the second.

First: sense rUrUrCrGrGrGrCrUrGrArCrCrUrArGrCrUrGrAdTdT / antisense rUrCrArGrCrUrArGrGrUrCrArGrCrCrCrGrArAdGdC
Second: sense rUrUrGrArCrUrUrGrGrCrArArGrGrGrCrUrUrAdTdT / antisense rUrArArGrCrCrCrUrUrGrCrCrArArGrUrCrArAdTdA
The normalised inhibition (eCFP-eYFP dual reporter) of the first is lower: 49% for the first, 61.9% for the second.

Target: UBE2J1
Experiment: reporter assay of Huesken 2005
Conditions: siRNA

Compared with “sense rArCrArArArArGrGrArGrArGrGrGrArGrCrCrAdTdT / antisense rUrGrGrCrUrCrCrCrUrCrUrCrCrUrUrUrUrGrUdTdG”, “sense rArCrArGrCrArUrUrArUrUrArGrCrCrArUrCrAdTdT / antisense rUrGrArUrGrGrCrUrArArUrArArUrGrCrUrGrUdCdC” is higher in normalised inhibition (eCFP-eYFP dual reporter): 41.7% for the first, 54.7% for the second.

First: sense rArGrArArGrUrCrArArUrUrCrArUrCrUrGrGrAdTdT / antisense rUrCrCrArGrArUrGrArArUrUrGrArCrUrUrCrUdGdC
Second: sense rArGrArGrArArGrGrUrUrGrUrCrUrArCrUrUrCdTdT / antisense rGrArArGrUrArGrArCrArArCrCrUrUrCrUrCrUdGdA
The normalised inhibition (eCFP-eYFP dual reporter) of the first is higher: 79.6% for the first, 78.8% for the second.

“sense rArGrGrArArArGrArArGrArGrCrArCrUrUrGrCdTdT / antisense rGrCrArArGrUrGrCrUrCrUrUrCrUrUrUrCrCrUdCdA” gave a normalised inhibition (eCFP-eYFP dual reporter) of 70.7%.
